Results from patent US12162840B2, “Herbicidal compositions” (SYNGENTA PARTICIPATIONS AG, priority 2018, dated 2024).

System: cool season plant species
Experiment: B2 Post-emergence efficacy Test 2, cool season plant species
Assay type: in vivo
Settings: 15 days after application, 0=no damage, 100=total kill
Outline: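 Plants at 12 days post-sowing were sprayed with active ingredient formulated in IF50 plus 0.2% v/v Genapol XO80, then grown in a glasshouse (24/18 °C or 20/16 °C day/night, 16 h light, 65% humidity). Damage scored 15 days after application on 0–100 scale (100 = total kill).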

Cc1nn(C)c(=O)c(-c2c(F)ccc(Cl)c2CCc2ccc(Cl)cc2)c1OC(=O)C(C)C [Compound 1.089]
Herbicidal activity (0-100 scale) ALOMY (15 g/Ha): 20
Herbicidal activity (0-100 scale) ALOMY (30 g/Ha): 50
Herbicidal activity (0-100 scale) ALOMY (60 g/Ha): 50
Herbicidal activity (0-100 scale) ALOMY (125 g/Ha): 80
Herbicidal activity (0-100 scale) ALOMY (250 g/Ha): 80
Herbicidal activity (0-100 scale) ALOMY (500 g/Ha): 90
Herbicidal activity (0-100 scale) AVEFA (15 g/Ha): 30
Herbicidal activity (0-100 scale) AVEFA (30 g/Ha): 70
Herbicidal activity (0-100 scale) AVEFA (60 g/Ha): 70
Herbicidal activity (0-100 scale) AVEFA (125 g/Ha): 80
Herbicidal activity (0-100 scale) AVEFA (250 g/Ha): 90
Herbicidal activity (0-100 scale) AVEFA (500 g/Ha): 90
Herbicidal activity (0-100 scale) BEAVA (15 g/Ha): 90
Herbicidal activity (0-100 scale) BEAVA (30 g/Ha): 80
Herbicidal activity (0-100 scale) BEAVA (60 g/Ha): 80
Herbicidal activity (0-100 scale) BEAVA (125 g/Ha): 80
Herbicidal activity (0-100 scale) BEAVA (250 g/Ha): 90
Herbicidal activity (0-100 scale) BEAVA (500 g/Ha): 90
Herbicidal activity (0-100 scale) BROTE (15 g/Ha): 0
Herbicidal activity (0-100 scale) BROTE (30 g/Ha): 0
Herbicidal activity (0-100 scale) BROTE (60 g/Ha): 10
Herbicidal activity (0-100 scale) BROTE (125 g/Ha): 30
Herbicidal activity (0-100 scale) BROTE (250 g/Ha): 60
Herbicidal activity (0-100 scale) BROTE (500 g/Ha): 70
Herbicidal activity (0-100 scale) BRSNN (15 g/Ha): 80
Herbicidal activity (0-100 scale) BRSNN (30 g/Ha): 80
Herbicidal activity (0-100 scale) BRSNN (60 g/Ha): 90
Herbicidal activity (0-100 scale) BRSNN (125 g/Ha): 90
Herbicidal activity (0-100 scale) BRSNN (250 g/Ha): 90
Herbicidal activity (0-100 scale) BRSNN (500 g/Ha): 90
Herbicidal activity (0-100 scale) CHEAL (15 g/Ha): 80
Herbicidal activity (0-100 scale) CHEAL (30 g/Ha): 90
Herbicidal activity (0-100 scale) CHEAL (60 g/Ha): 90
Herbicidal activity (0-100 scale) CHEAL (125 g/Ha): 100
Herbicidal activity (0-100 scale) CHEAL (250 g/Ha): 100
Herbicidal activity (0-100 scale) CHEAL (500 g/Ha): 100
Herbicidal activity (0-100 scale) GALAP (15 g/Ha): 10
Herbicidal activity (0-100 scale) GALAP (30 g/Ha): 20
Herbicidal activity (0-100 scale) GALAP (125 g/Ha): 30
Herbicidal activity (0-100 scale) GALAP (250 g/Ha): 30
Herbicidal activity (0-100 scale) GALAP (500 g/Ha): 90
Herbicidal activity (0-100 scale) HORVW (15 g/Ha): 10
Herbicidal activity (0-100 scale) HORVW (30 g/Ha): 10
Herbicidal activity (0-100 scale) HORVW (60 g/Ha): 20
Herbicidal activity (0-100 scale) HORVW (125 g/Ha): 20
Herbicidal activity (0-100 scale) HORVW (250 g/Ha): 30
Herbicidal activity (0-100 scale) HORVW (500 g/Ha): 60
Herbicidal activity (0-100 scale) KCHSC (15 g/Ha): 10
Herbicidal activity (0-100 scale) KCHSC (30 g/Ha): 20
Herbicidal activity (0-100 scale) KCHSC (60 g/Ha): 50
Herbicidal activity (0-100 scale) KCHSC (125 g/Ha): 60
Herbicidal activity (0-100 scale) KCHSC (250 g/Ha): 60
Herbicidal activity (0-100 scale) KCHSC (500 g/Ha): 60
Herbicidal activity (0-100 scale) LOLPE (15 g/Ha): 40
Herbicidal activity (0-100 scale) LOLPE (30 g/Ha): 70
Herbicidal activity (0-100 scale) LOLPE (60 g/Ha): 80
Herbicidal activity (0-100 scale) LOLPE (125 g/Ha): 90
Herbicidal activity (0-100 scale) LOLPE (250 g/Ha): 90
Herbicidal activity (0-100 scale) LOLPE (500 g/Ha): 90
Herbicidal activity (0-100 scale) POAAN (15 g/Ha): 20
Herbicidal activity (0-100 scale) POAAN (30 g/Ha): 40
Herbicidal activity (0-100 scale) POAAN (60 g/Ha): 70
Herbicidal activity (0-100 scale) POAAN (125 g/Ha): 90
Herbicidal activity (0-100 scale) POAAN (250 g/Ha): 80
Herbicidal activity (0-100 scale) POAAN (500 g/Ha): 70
Herbicidal activity (0-100 scale) SINAR (15 g/Ha): 70
Herbicidal activity (0-100 scale) SINAR (30 g/Ha): 80
Herbicidal activity (0-100 scale) SINAR (60 g/Ha): 90
Herbicidal activity (0-100 scale) SINAR (125 g/Ha): 90
Herbicidal activity (0-100 scale) SINAR (250 g/Ha): 90
Herbicidal activity (0-100 scale) SINAR (500 g/Ha): 90
Herbicidal activity (0-100 scale) STEME (15 g/Ha): 90
Herbicidal activity (0-100 scale) STEME (30 g/Ha): 90
Herbicidal activity (0-100 scale) STEME (60 g/Ha): 90
Herbicidal activity (0-100 scale) STEME (125 g/Ha): 90
Herbicidal activity (0-100 scale) STEME (250 g/Ha): 90
Herbicidal activity (0-100 scale) STEME (500 g/Ha): 90
Herbicidal activity (0-100 scale) TRZAW (15 g/Ha): 0
Herbicidal activity (0-100 scale) TRZAW (30 g/Ha): 0
Herbicidal activity (0-100 scale) TRZAW (60 g/Ha): 20
Herbicidal activity (0-100 scale) TRZAW (125 g/Ha): 30
Herbicidal activity (0-100 scale) TRZAW (250 g/Ha): 60
Herbicidal activity (0-100 scale) TRZAW (500 g/Ha): 70
Herbicidal activity (0-100 scale) VERPE (15 g/Ha): 70
Herbicidal activity (0-100 scale) VERPE (30 g/Ha): 80
Herbicidal activity (0-100 scale) VERPE (60 g/Ha): 90
Herbicidal activity (0-100 scale) VERPE (125 g/Ha): 90
Herbicidal activity (0-100 scale) VERPE (250 g/Ha): 100
Herbicidal activity (0-100 scale) VERPE (500 g/Ha): 100
